Patent US8357407B2, “Agent for cutaneous photoprotection against UVA/UVB rays” (priority 2009, dated 2013)
Where “and” joins values, the source holds several entries; their conditions need not be identical. Identical values can stand only once. Marks after values point to notes of the source that are not given here.

Legend:
[1] = UV/VIS comparative spectral absorption; format: physicochemical
Text: The AEDA was subjected to a UV/VIS spectral analysis at 200-400 nm to determine the peak absorbency of the compounds with UV absorbing characteristics present in the AEDA. A SHIMADZU UV-160 photospectrometer was used for this purpose, with the samples diluted in ethanol until a visible reading in the spectrum was obtained.
The AEDA absorption spectra show maximum absorption at wavelengths under 240 nm. In the band from approximately 250 nm to 350 nm. AEDA offers stable absorbency between 0.75 and 1.5 UA that blocks a significant amount of UVC, UVB and the more energetic portion of UVA light. Part of its effects may therefore be due to a screen effect that prevents the luminous radiation from reaching the skin.
The first two are located before the UVC band, and the third appears above 285 nm and extends to almost 340 nm. This behavior is typical of the polyphenols present in numerous vegetals, which provide and an effective screen effect that protects plants from solar light. When comparing the concentrations required to reach similar absorbencies, it can be observed that ferulic acid develops its effective blocking ability at 50 μg/ml, whereas with AEDA, 500 μg/ml produce a block equivalent to 50% of that obtained with 50 μg/ml of ferulic acid. To produce similar blocking intensities, the necessary concentrations of AEDA must be 10 to 50 times higher than with ferulic acid.

[2] = tested on: rat skin under UVB radiation; experiment: Second test: UVB-induced dermal erythema and sunburnt cells in rat skin; format: in vivo; design: key to presence or absence of erythema or its manifestations in the treated area, per animal: presence (+); absence (−)
Method: They were acclimatized to the location where the tests were carried out during 7 days after being received. […] The animals were fed ad libitum with a standard rodent diet and running water during this period and during the experimental period. […] The products to be tested were applied directly on the skin as a gel. The test was conducted following the method described by Winder et al. “A Study of Pharmacological Influences of Ultraviolet Erythema in Guinea Pigs”. Arch. Int Pharmacodyn, 116: 261-292. 1958, and other authors such as Wendy, J et al. “The Local Antinociceptive and Topical Anti-inflammatory Effects of Propyl Gallate in Rodents”. Br. J. Pharmacol, 58: 573-581. 1976, and […]. et al. “Protective Effects of Silymarin Against Photocarcinogenesis in a Mouse Skin Model”. J. Natl. Cancer Inst. 89: 556-65. 1997, with slight modifications. The animals were shaved clean six days before the test to eliminate all traces of hair, leaving the skin on their backs completely bare. A morning (10:00 h) and evening (20:00 h) dosage regime for the substance to be tested or for the standard commenced on the first day of the test on a randomized and blind basis lasting 3 days. On the third day, after applying the corresponding morning treatments, the animals were placed and secured in the equipment's exposure platform. The animals were then placed 8 cm from the 4*40 W ultraviolet light source emitting at a fundamental frequency of 313 nm and in a range from approximately 290 to 350 nm, with an anti-UVC filter. The exposure was maintained until all animals received a total dosage of approximately 2.5 kJ/m2, with the irradiation dosis determined by means of an ultraviolet light detector. The backs of the animals were photographed 24 hours after the exposure, and the animals were sacrificed by cervical dislocation. The back skin was removed and a 2×2 cm fragment located under the area were the substance to be tested was applied was placed and maintained for 6 hours in a jar with 10% tamponated formalin, before initiating the paraffin inclusion process and preparation for the histological study. The preparations were observed under an optical microscope and the epidermal-dermal space was photographed at ×100 magnification in 5 different locations for each preparation. A count of sunburnt cells was made for each photograph, considering cells as sunburnt if they had hypereosinophilic cytoplasm with small dark and irregular dense nuclei different than those of its neighbors. The evaluation of the erythema was made on a positive/negative basis, obtaining the percentage of protected animals. The number of hypereosinophilic cells with pyknotic nuclei (sunburnt) was counted in the photographic fields for each of the five different sectors in each histological preparation. The sum of the five counts was considered as the value for each animal. […] The statistical significance of the differences was evaluated by means of non-parametric tests, such as the Fisher Test or the χ^2 (Chi Squared).

[3] = EDA 300 mg/ml or ferulic acid 0.5% topical, p < 0.01 versus Vehicle

Q: Which “concentration at which effective UV blocking ability develops” value [1] does the source give for `COc1cc(/C=C/C(=O)O)ccc1O` [Ferulic Acid, ferulic acid] here?
A: The value was 50 µg/mL.

Q: And the “number of sunburnt cells, Average ± S.E.M.” value ([2]; 10 animals per group, EDA 300 mg/ml or ferulic acid 0.5% topical, positive control vehicle 32.7 ± 1.52)?
A: Its value is 5.2 ± 1.08.

Q: What about the “number of sunburnt cells (in words)” value ([2]; AEDA 300 mg/ml or ferulic acid 0.5% topical, histology) of the same compound?
A: Its value is “small”.

Q: And the “erythema, % inhibition versus Positive Control Vehicle (suppression, subjective criteria)” value ([2]; EDA 300 mg/ml or ferulic acid 0.5% topical)?
A: The value was 90%.

Q: What about the “erythema, % Protected animals” value [2, 3] of the same compound?
A: Its value is 70%*.

Q: And the “sunburnt cells, % inhibition versus Positive Control Vehicle” value [2, 3]?
A: Its value is 84.1%*.

Q: And the “erythema, % Protected animals” value ([2]; EDA 300 mg/ml or ferulic acid 0.5% topical, p < 0.01 versus Vehicle, listed as ferulic acid)?
A: Its value is 70%.

Q: What about the “presence or absence of erythema or its manifestations in the treated area, per animal” value ([2]; individual animals 1-10, EDA 300 mg/ml or ferulic acid 0.5% topical, 24 hours after UVB exposure) of the same compound?
A: The value was “− (6×) and + (3×)”.

Q: What about the “number of sunburnt cells per animal (sum of five counts)” value ([2]; individual animals 1-10, EDA gel 300 mg/ml or ferulic acid gel 0.5%, 100 μl topical twice daily for 3 days, UVB approx. 2.5 kJ/m2, 24 hours after exposure) of the same compound?
A: Its value is 8 and 4 (2×) and 3 (2×) and 2 and 10 and 0 and 11 and 7.
